ChEMBL document CHEMBL4699511, “Cedrol, a Sesquiterpene Alcohol, Enhances the Anticancer Efficacy of Temozolomide in Attenuating Drug Resistance via Regulation of the DNA Damage Response and MGMT Expression” (J Nat Prod, 2020)
Active and inactive are the calls of the source. The calls are words filed in the database; no cut-off is given here.

What was measured:
[1] = test system: RG2; experiment: Inhibition of AKT phosphorylation at S473 residues in rat RG2 cells at 206 uM after 48 hrs by Western blot analysis; format: cell-based
[2] = Effect on ERK expression in rat RG2 cells at 206 uM after 48 hrs by Western blot analysis (reference value: 1); format: functional
[3] = test system: DBTRG-05MG; experiment: Induction of apoptosis in human DBTRG-05MG cells assessed as Bax expression at 206 uM after 48 hrs by Western blot analysis (reference value: 1); format: functional
[4] = test system: RG2; experiment: Induction of apoptosis in rat RG2 cells assessed as cleaved PARP expression at 206 uM after 48 hrs by Western blot analysis (reference value: 1); format: functional
[5] = test system: DBTRG-05MG; experiment: Antitumour activity against human DBTRG-05MG cells xenografted in BALB/c nude mouse assessed as increase in survival time at 5 mg/kg, ip for 5 days and measured every 2 days; format: functional, organism-based; settings: time 5.0 day
[6] = Toxicity in BALB/c mouse xenografted with DBTRG-05MG cells assessed as reduction in body weight at 75 mg/kg, sc for every 2 days for 20 days; format: organism-based; settings: in vivo, 480 h, time 20 day
[7] = test system: DBTRG-05MG; experiment: Synergistic cytotoxicity against human DBTRG-05MG cells assessed as synergistic effect index at 134.9 uM after 48 hrs in presence of 412.1 uM TMZ by MTT assay; format: functional
[8] = test system: DBTRG-05MG; experiment: Synergistic cytotoxicity against human DBTRG-05MG cells assessed as combination index at 89.9 uM after 48 hrs in presence of 309 uM TMZ by MTT assay; format: functional
[9] = test system: DBTRG-05MG; experiment: Synergistic cytotoxicity against human DBTRG-05MG cells assessed as combination index at 89.9 uM after 48 hrs in presence of 515.1 uM TMZ by MTT assay; format: functional
[10] = test system: DBTRG-05MG; experiment: Synergistic cytotoxicity against human DBTRG-05MG cells assessed as combination index at 134.9 uM after 48 hrs in presence of 103 uM TMZ by MTT assay; format: functional
[11] = test system: RG2; experiment: Synergistic cytotoxicity against rat RG2 cells assessed as synergistic effect index at 89.9 uM after 48 hrs in presence of 103 uM TMZ by MTT assay; format: functional
[12] = test system: RG2; experiment: Synergistic cytotoxicity against rat RG2 cells assessed as synergistic effect index at 112.4 uM after 48 hrs in presence of 309 uM TMZ by MTT assay; format: functional
[13] = test system: RG2; experiment: Synergistic cytotoxicity against rat RG2 cells assessed as combination index at 112.4 uM after 48 hrs in presence of 103 uM TMZ by MTT assay; format: functional
[14] = test system: RG2; experiment: Synergistic cytotoxicity against rat RG2 cells assessed as combination index at 112.4 uM after 48 hrs in presence of 412.1 uM TMZ by MTT assay; format: functional
[15] = test system: RG2; experiment: Synergistic cytotoxicity against rat RG2 cells assessed as combination index at 134.9 uM after 48 hrs in presence of 206 uM TMZ by MTT assay; format: functional
[16] = Synergistic cytotoxicity against rat CTX TNA2 cells assessed as synergistic effect index at 112.4 uM after 48 hrs in presence of 412.1 uM TMZ by MTT assay; format: cell-based; settings: ctx tna2, 48 h
[17] = Synergistic cytotoxicity against rat CTX TNA2 cells assessed as combination index at 134.9 uM after 48 hrs in presence of 309 uM TMZ by MTT assay; format: cell-based; settings: ctx tna2, 48 h
[18] = Synergistic cytotoxicity against rat CTX TNA2 cells assessed as combination index at 134.9 uM after 48 hrs in presence of 515.1 uM TMZ by MTT assay; format: cell-based; settings: ctx tna2, 48 h
[19] = test system: DBTRG-05MG; experiment: Induction of cell cycle arrest in human DBTRG-05MG cells assessed as accumulation at S phase at 112.4 uM after 6 hrs by propidium iodide staining based flow cytometric analysis (reference value: 22.76 +/- 1.56%); format: functional
[20] = test system: DBTRG-05MG; experiment: Induction of cell cycle arrest in human DBTRG-05MG cells assessed as accumulation at G0/G1 phase at 112.4 uM after 12 hrs by propidium iodide staining based flow cytometric analysis (reference value: 47.16 +/- 1.55%); format: functional
[21] = test system: DBTRG-05MG; experiment: Induction of cell cycle arrest in human DBTRG-05MG cells assessed as accumulation at G2/M phase at 112.4 uM after 12 hrs by propidium iodide staining based flow cytometric analysis (reference value: 30.08 +/- 0.1%); format: functional
[22] = test system: DBTRG-05MG; experiment: Induction of cell cycle arrest in human DBTRG-05MG cells assessed as CyclinB1 expression at 112.4 uM after 48 hrs in presence of TMZ by Western blot analysis (reference value: 1); format: functional
[23] = test system: RG2; experiment: Induction of cell cycle arrest in rat RG2 cells assessed as CDK4 expression at 112.4 uM after 48 hrs in presence of TMZ by Western blot analysis (reference value: 1); format: functional
[24] = test system: RG2; experiment: Induction of cell cycle arrest in rat RG2 cells assessed as CyclinA expression at 112.4 uM after 48 hrs in presence of TMZ by Western blot analysis (reference value: 1); format: functional
[25] = Effect on AKT expression in human DBTRG-05MG cells at 112.4uM after 48 hrs by Western blot analysis (reference value: 1); format: functional
[26] = Effect on AKT expression in rat RG2 cells at 112.4uM after 48 hrs by Western blot analysis (reference value: 1); format: functional
[27] = test system: RG2; experiment: Inhibition of p38 phosphorylation at Tyr182 residues in rat RG2 cells at 112.4uM after 48 hrs by Western blot analysis (reference value: 1); format: cell-based
[28] = Effect on ERK expression in rat RG2 cells at 112.4uM after 48 hrs in presence of TMZ by Western blot analysis (reference value: 1); format: functional
[29] = test system: RG2; experiment: Induction of apoptosis in rat RG2 cells assessed as increase in chromatin condensation at 112.4 uM after 48 hrs by TUNEL assay; format: functional, cell-based
[30] = test system: DBTRG-05MG; experiment: Induction of apoptosis in human DBTRG-05MG cells assessed as increase in DNA fragmentation at 112.4 uM after 48 hrs in presence of TMZ by TUNEL assay; format: functional, cell-based
[31] = test system: RG2; experiment: Induction of apoptosis in rat RG2 cells assessed as increase in DNA fragmentation at 112.4 uM after 48 hrs in presence of TMZ by TUNEL assay; format: functional, cell-based
[32] = test system: RG2; experiment: Induction of apoptosis in rat RG2 cells assessed as phosphorylated caspace-3 expression at 112.4 uM after 48 hrs by Western blot analysis (reference value: 1); format: functional
[33] = test system: RG2; experiment: Induction of apoptosis in rat RG2 cells assessed as phosphorylated PARP expression at 112.4 uM after 48 hrs by Western blot analysis (reference value: 1); format: functional
[34] = test system: RG2; experiment: Induction of apoptosis in rat RG2 cells assessed as Bax expression at 112.4 uM after 48 hrs in presence of TMZ by Western blot analysis (reference value: 1); format: functional
[35] = test system: RG2; experiment: Induction of apoptosis in rat RG2 cells assessed as cleaved caspace-3 expression at 112.4 uM after 48 hrs in presence of TMZ by Western blot analysis (reference value: 1); format: functional
[36] = test system: DBTRG-05MG; experiment: Induction of DNA damage in human DBTRG-05MG cells assessed as Chk1 phosphorylation at ser345 residues at 112.4 uM after 48 hrs in presence of TMZ by Western blot analysis (reference value: 1); format: functional

With `Cn1nnc2c(C(N)=O)ncn2c1=O` [TEMOZOLOMIDE] the fold change (FC) [1] was 0.5, the “fold change (FC)” value [2] was 1.1 and the “fold change (FC)” value [3] was 1.4. For the same molecule, the “fold change (FC)” value [4] was 1.5 and the Activity [5] was “Active”.

For `C[C@@H]1CC[C@H]2C(C)(C)[C@H]3C[C@@]12CC[C@@]3(C)O` [CEDROL], the Activity [6] was “Non-Toxic”, the Activity_index [7] was 0.9 and the CI [8] was 0.74. The CI [9] was 0.81, the CI [10] was 0.64 and the Activity_index [11] was 0.65. For the same molecule, the Activity_index [12] was 0.85, the CI [13] was 0.8 and the CI [14] was 0.99. The CI [15] was 0.84, the Activity_index [16] was 0.58 and the CI [17] was 1.13. The CI [18] was 0.88, the Activity [19] was 16.38% and the Activity [20] was 54.65%. For the same molecule, the Activity [21] was 31.03%, the “fold change (FC)” value [22] was 0.7 and the “fold change (FC)” value [23] was 0.5. For the same molecule, the “fold change (FC)” value [24] was 0.7, the “fold change (FC)” value [25] was 0.9 and the “fold change (FC)” value [26] was 0.6. The fold change (FC) [27] was 1.3, the “fold change (FC)” value [28] was 0.7 and the Activity [29] was “Active”. For the same molecule, the Activity [30] was “Active”, the Activity [31] was “Active” and the “fold change (FC)” value [32] was 1.1. For the same molecule, the “fold change (FC)” value [33] was 0.6, the “fold change (FC)” value [34] was 2.21 and the “fold change (FC)” value [35] was 3.3. For the same molecule, the “fold change (FC)” value [36] was 1.4.
